Here are results for ten molecules from US7750019B2, “Pyrimidine compound having benzyl(pyridylmethyl)amine structure and medicament comprising the same” (Kowa Company, Ltd., priority 2006, dated 2010).

Series [1] has as its target T1, CETP (Homo sapiens, UniProt P11597).
T1 construct: The CETP activity in this plasma was measured with Cholesteryl Ester Transfer Protein Activity kit; from tissue; host or cells: human plasma
T1 sequence (P11597 18-493): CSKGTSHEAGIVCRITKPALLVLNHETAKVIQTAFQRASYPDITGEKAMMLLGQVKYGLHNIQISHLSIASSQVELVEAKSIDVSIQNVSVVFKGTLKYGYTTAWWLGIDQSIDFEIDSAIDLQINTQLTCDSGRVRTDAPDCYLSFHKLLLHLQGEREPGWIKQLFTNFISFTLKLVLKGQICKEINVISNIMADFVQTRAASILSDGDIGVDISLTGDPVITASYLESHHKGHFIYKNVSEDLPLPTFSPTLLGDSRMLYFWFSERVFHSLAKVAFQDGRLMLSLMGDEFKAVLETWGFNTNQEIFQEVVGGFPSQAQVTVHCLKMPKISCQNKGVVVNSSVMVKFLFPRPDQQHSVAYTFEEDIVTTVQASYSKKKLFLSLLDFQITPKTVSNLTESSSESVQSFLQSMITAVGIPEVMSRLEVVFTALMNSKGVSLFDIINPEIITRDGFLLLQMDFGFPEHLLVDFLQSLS
As to the kind of experiment: CETP inhibitory action in human plasma (Roar Biomedical CETP Activity kit, fluorescence). The settings on record: human plasma incubated with compound at 37° C. for 4 hours; read-out: IC50 (concentration inhibiting the CETP activity by 50%). Format: biochemical. The procedure: A solution obtained by dissolving an exemplary compound or a comparative compound in polyethyleneglycol/N-methyl-2-pyrrolidone (vol/vol=1/1) was added to human plasma, and the mixture was incubated in an incubator at 37° C. for 4 hours. The CETP activity in this plasma was measured with Cholesteryl Ester Transfer Protein Activity kit (Roar Biomedical, catalog No.: RB-CETP). Specifically, to each well of a 96-well plate, 95 μL of a buffer (10 mM Tris, 150 mM NaCl, 2 mM EDTA, pH 7.4), 2 μL of Donor particle and 2 μL of Acceptor particle were added, 1 μL of the human plasma after the incubation was added to the mixture, and the mixture was incubated in an incubator at 37° C. for 2 hours. After completion of the incubation, fluorescence intensity (FLU) was measured with a fluorescence plate reader (excitation wavelength: 465 nm, emission wavelength: 535 nm). In accordance with the following equation 1, the CETP activity (% of control) was obtained for the compounds of the examples and the comparative compounds for two or more concentrations. CETP activity (% of control)=(Sample FLU−Blank FLU)×100/(Control FLU−Blank FLU) (Equation 1) In the equation, the terms have the following meanings: Blank: No addition of plasma Control: Plasma not added with solution of compound Sample: Plasma added with solution of compound
A value obtained by subtracting the value of the CETP activity from 100 was defined as the CETP inhibitory rate of each exemplary compound and comparative compound, and a concentration inhibiting the CETP activity by 50% (IC50) was calculated for each exemplary compound and comparative compound from the values of the CETP inhibitory rate at two or more concentrations. As the comparative compounds, the following compounds were used, which are compounds having a benzyl(heterocyclylmethyl)amine structure described in Examples 52, 66 and 79 of Patent document 9 (International Patent Publication WO2006/073973).

Series [2] deals with CETP. As to the kind of experiment: CETP inhibitory activity in blood of hamster (single oral administration). The settings on record: 30 mg/kg single oral dose in olive oil, blood collected 2 hours after administration, n=3, control 33.7 ± 2.3. It counts as in vivo. The procedure: 1: Labeling of Donor Lipoprotein (HDL3 Fraction) with ^3H-Cholesterol and Preparation of Acceptor Lipoprotein (LDL Fraction)
The donor lipoprotein was prepared by adding KBr to plasma of healthy human subject (50 mL) to adjust the specific gravity (d) of the plasma to be 1.125, centrifuging the mixture at 100,000 rpm and 4° C. for 2.5 hours (Optima Max-E TLA-100.2 rotor, Beckman), and collecting the lower layer (HDL3 fraction, d>1.125). The resulting fraction was dialyzed against PBS (10 mM Na2HPO4, 10 mM NaH2PO4, 0.15 M NaCl, 1 mM EDTA-2Na, pH 7.4). Then, a 95% ethanol solution of 9.25 MBq 1, 2-3H(N)cholesterol (NEN™, Life Science Products, USA) was added to the sample with stirring, and the mixture was incubated at 37° C. for 18 hours. After the incubation, the mixture was added with KBr to adjust the specific gravity thereof to be 1.210, and centrifuged under the same conditions as mentioned above to obtain the upper layer (^3H-labeled HDL3 fraction, 1.125<d<1.210). The ^3H-labeled HDL3 was dialyzed against PBS, and used for the measurement of the CETP activity.
The acceptor lipoprotein was prepared as follows. Plasma of healthy human subject (30 mL) was centrifuged under the same conditions as mentioned above, and the upper layer (chylomicron and VLDL fraction, d<1.006) was removed. The lower layer was added with KBr to adjust the specific gravity thereof to be 1.063, and centrifuged under the same conditions to obtain the upper layer (LDL fraction, 1.006<d<1.063). The LDL fraction was dialyzed against PBS and used for the measurement of the CETP activity.
Each of the compounds of Examples 10 and 13 and the comparative compounds was dissolved in olive oil and orally administered once to the animals, and blood was collected from the abdominal portion of vena cava under pentobarbital anesthetization 2 hours after the administration. Further, as a control, olive oil in which any compound was not dissolved was administered, and blood was collected in a similar manner (n=3 for each).
(§1) To 10 μL of the hamster plasma, 5 μL of ^3H-labeled HDL3 and 20 μL of LDL were added, and the final volume of the mixture was made […] with a TBS solution (10 mM Tris, 0.15 M NaCl, pH 7.4). The mixture was incubated at 37° C. for 18 hours, then added with 400 μL of the TBS solution containing 0.15 M MgCl2 and 0.3% dextran sulfate, stirred (10 sec×2) with VORTEX-2 (Scientific Industries Inc.), left for 30 minutes on ice, and centrifuged at 4° C. and 8,000 rpm for 10 minutes (MX-301, TOMY). The resulting centrifugation supernatant (^3H-labeled HDL3 fraction) in a volume of 300 μL was collected in a vial, and added with 3.6 mL of a scintillator (Aquazol-2, Packard), and the mixture was stirred. Then, radioactivity of ^3H was measured with a liquid scintillation counter (TRI-CARB 2700 TR, Packard). The CETP activity (%) was obtained in accordance with the following equation 2. CETP activity (%)=(Blank dpm−Sample dpm)×100/(Blank dpm) (Equation 2) In the equation, the terms have the following meanings: Blank dpm: Value of ^3H radioactivity of sample not added with plasma Sample dpm: Value of ^3H radioactivity of sample added with compound or control sample.

The subject of series [3] is CETP. The series is described as follows: CETP inhibitory activity in blood of hamster (repetitive oral administration for 7 days). It counts as in vivo. The settings on record: 100 mg/kg orally once a day for 7 days, blood collected 2 hours after final administration, n=5, control 43.5 ± 6.4. The procedure:
as §1, with “sample. […]” for “sample.”

Each structure is given as a SMILES string. Where a name gives a salt, the structure may show the parent alone.

For the molecule `CCN(CC1CCCC1)c1ccc(OC)nc1CN(Cc1cc(C(F)(F)F)cc(C(F)(F)F)c1)c1ncc(OCC[S+](C)[O-])cn1` (stereo not drawn) [Example 12, 2-[N-[3,5-bis(trifluoromethyl)benzyl]-N-[3-(N-cyclopentylmethyl-N-ethyl)amino-6-methoxypyridin-2-yl]methyl]amino-5-(2-methylsulfinylethoxy)pyrimidine], the IC50 in series [1] came out at 350 nM.
By melting point is commonly meant the temperature, or range, at which the solid turns liquid. For `CCN(CC1CCCC1)c1ccc(OC)nc1CN(Cc1cc(C#N)cc(C(F)(F)F)c1)c1ncc(OCCS(C)(=O)=O)cn1` [Example 10, 2-[N-(3-cyano-5-trifluoromethylbenzyl)-N-[3-(N-cyclopentylmethyl-N-ethyl)amino-6-methoxypyridin-2-yl]methyl]amino-5-(2-methylsulfonylethoxy)pyrimidine], the melting point is 97.2 to 98.2 °C. Also, the IC50 in series [1] was determined as 35 nM. For the same molecule, the “Average CETP activity ± standard deviation (%)” value in series [2] came to 2.6 ± 1.1%. For the same molecule, in series [3], the “Average CETP activity ± standard deviation (%)” value worked out at 11.4 ± 6.0%.
`CCN(CC1CCCC1)c1nc2ccccc2cc1CN(Cc1cc(C(F)(F)F)cc(C(F)(F)F)c1)c1nnn(C)n1` [Comparative Compound 1, reference compound]: the IC50 in series [1] is 1000 nM. Further, the “Average CETP activity ± standard deviation (%)” value in series [2] is listed as 22.9 ± 3.3%.
As to `CCN(CC1CCCC1)c1ccc(OC)nc1CN(Cc1cc(C#N)cc(C(F)(F)F)c1)c1ncc(OCC[S+](C)[O-])cn1` (stereo not drawn) [Example 9, 2-[N-(3-cyano-5-trifluoromethylbenzyl)-N-[3-(N-cyclopentylmethyl-N-ethyl)amino-6-methoxypyridin-2-yl]methyl]amino-5-(2-methylsulfinylethoxy)pyrimidine], the IC50 in series [1] stood at 90 nM.
For the molecule `CCN(CC1CCCC1)c1nc2ccccc2cc1CN(Cc1cc(C(F)(F)F)cc(C(F)(F)F)c1)c1ncccn1` [Comparative Compound 2, reference compound], the IC50 in series [1] came out at 20000 nM. Further, in series [2], the “Average CETP activity ± standard deviation (%)” value stood at 30.3 ± 4.2%.
Take `CCN(CC1CCCC1)c1nc(C)c(C)cc1CN(Cc1cc(C(F)(F)F)cc(C(F)(F)F)c1)c1nnn(C)n1` [Comparative Compound 3, reference compound]: the IC50 in series [1] turned out to be 1500 nM. Moreover, the “Average CETP activity ± standard deviation (%)” value in series [2] is on record as 15.0 ± 4.0%.
Turning to `CCN(CC1CCCC1)c1ccc(OC)nc1CN(Cc1cc(C#N)cc(C#N)c1)c1ncc(OCCS(C)(=O)=O)cn1` [Example 42, 2-[N-[3-(N-cyclopentylmethyl-N-ethyl)amino-6-methoxypyridin-2-yl]methyl-N-(3,5-dicyanobenzyl)]amino-5-(2-methylsulfonylethoxy)pyrimidine], the IC50 in series [1] was determined as 250 nM.
The same measure, in the same setting: next, `CCN(CC1CCCC1)c1ccc(OC)nc1CN(Cc1cc(C#N)cc(C#N)c1)c1ncc(OCC[S+](C)[O-])cn1` (stereo not drawn) [Example 41, 2-[N-[3-(N-cyclopentylmethyl-N-ethyl)amino-6-methoxypyridin-2-yl]methyl-N-(3,5-dicyanobenzyl)]amino-5-(2-methylsulfinylethoxy)pyrimidine]: 500 nM.
In turn, `CCN(CC1CCCC1)c1ccc(OC)nc1CN(Cc1cc(C(F)(F)F)cc(C(F)(F)F)c1)c1ncc(OCCS(C)(=O)=O)cn1` (as salt: hydrochloride) [Example 13, 2-[N-[3,5-bis(trifluoromethyl)benzyl]-N-[3-(N-cyclopentylmethyl-N-ethyl)amino-6-methoxypyridin-2-yl]methyl]amino-5-(2-methylsulfonylethoxy)pyrimidine] registered a melting point of 67 to 71 °C.
`CCN(CC1CCCC1)c1ccc(OC)nc1CN(Cc1cc(C(F)(F)F)cc(C(F)(F)F)c1)c1ncc(OCCS(C)(=O)=O)cn1` [Example 13, 2-[N-[3,5-bis(trifluoromethyl)benzyl]-N-[3-(N-cyclopentylmethyl-N-ethyl)amino-6-methoxypyridin-2-yl]methyl]amino-5-(2-methylsulfonylethoxy)pyrimidine]: the IC50 in series [1] came to 250 nM. Further, the “Average CETP activity ± standard deviation (%)” value was 8.5 ± 1.7% in series [2] and 9.0 ± 1.7% in series [3].
